In article PMC1660542, “Structure-based discovery of inhibitors of the YycG histidine kinase: New chemical leads to combat Staphylococcus epidermidis infections” (BMC Microbiology, 2006):
Converted amounts (≈) assume the structure as drawn. “Also recorded” adds a separate entry of the source. Where two headings read alike, the source gives them in different places.

Experiments:
S. epidermidis RP62A [1] = test: MIC assay (broth dilution in tubes, CLSI); assay type: cell-based; conditions: Staphylococcus epidermidis
From the text: (§1) Staphylococcus epidermidis ATCC12228 and RP62A strains were purchased from the American Type Culture Collection (ATCC, Manassas, USA). Staphylococcus aureus ATCC29213, Escherichia coli ATCC25922 and Pseudomonas aeruginosa ATCC27853 were kindly provided by Dr. Bijie Hu at Zhongshan Hospital (Shanghai, China). S. epidermidis strains se527, se886, se847, seG203, Streptococcus pyogenes strain 144, and Streptococcus mutans strain 128 were all clinical isolates from Zhongshan Hospital and Huashan Hospital (Shanghai, China). If not stated otherwise, S. epidermidis and S. aureus strains were grown at 37°C in tryptic soy broth (TSB, Oxoid) containing 0.25% glucose, E. coli and P. aeruginosa strains were grown at 37°C in Luria-Bertani (LB, Oxoid).
(§2) MIC assays for the antibacterial activities of the compounds were performed according to the broth micro-dilution (in tubes) method of the Clinical and Laboratory Standards Institute (CLSI) of America. The Minimal Bactericidal Concentration (MBC) was obtained by subculturing 100 μl from each negative (no visible bacterial growth) tube from the MIC assay, onto substance-free Mueller-Hinton agar plates. The plates were incubated at 37°C for 24 hours, and the MBC was defined as the lowest concentration of substance which produced subcultures growing no more than five colonies on each plate.

S. epidermidis RP62A [2] = test: Minimal bactericidal concentration (MBC) assay; assay type: cell-based; conditions: Staphylococcus epidermidis
Method: as §2

[3] = test system: S. epidermidis RP62A mature biofilm cells; test: Killing biofilm cells of S. epidermidis (CFU count); assay type: cell-based, Staphylococcus epidermidis
Method: An overnight culture of S. epidermidis strain RP62A was diluted 1:100 in TSB containing 0.25% glucose, then 1 ml bacterial suspension was inoculated into the wells of sterile 12-well polystyrene microtiter plates (Falcon) incubated at 37°C for 24 h. The plates with mature biofilm were washed gently four times with sterile PBS before adding fresh TSB containing the various compounds at their MBC values, and incubated at 37°C for 24 h. The plates were washed again four times with sterile PBS, then the biofilm cells were scraped from the plate and resuspended in 1 ml PBS, and violently vortexed to disintegrate clumps of cells. Next, the suspension was diluted gradually with sterile PBS and subcultured onto substance-free Mueller-Hinton agar plates, incubated at 37°C for 24 h, and the colonies were counted. The fresh medium containing vancomycin at the MBC value and substance-free fresh medium served as the controls. The experiment was repeated three times.

S. epidermidis ATCC12228 [4] = test: MIC assay (broth dilution in tubes, CLSI); assay type: cell-based, Staphylococcus epidermidis; conditions: Staphylococcus epidermidis
From the text: as §1, §2

S. aureus ATCC29213 = test: MIC assay (broth dilution in tubes, CLSI); assay type: cell-based, Staphylococcus aureus; conditions: for MIC: Staphylococcus aureus, S. aureus ATCC29213, read-out: Minimal inhibitory concentration (MIC)
From the text: as §1, §2

S. pyogenes 144 = test: MIC assay (broth dilution in tubes, CLSI); assay type: cell-based, Streptococcus pyogenes; conditions: for MIC: Streptococcus pyogenes, S. pyogenes 144, read-out: Minimal inhibitory concentration (MIC)
From the text: as §1, §2

S. mutans 128 = test: MIC assay (broth dilution in tubes, CLSI); assay type: cell-based, Streptococcus mutans; conditions: for MIC: Streptococcus mutans, S. mutans 128, read-out: Minimal inhibitory concentration (MIC)
From the text: as §1, §2

S. epidermidis ATCC12228 [5] = test: Minimal bactericidal concentration (MBC) assay; assay type: cell-based; conditions: Staphylococcus epidermidis
Method: as §2

YycG' protein = target: T1, YycG' protein (Staphylococcus epidermidis, UniProt Q8CU87); test: Inhibition of YycG' ATPase activity / autophosphorylation (Kinase-Glo Luminescent Kinase Assay); assay type: biochemical; conditions: 3 μM ATP; for IC50: 4 μg YycG' protein, read-out: IC50 for YycG'; for inhibition at 50 µM: compound 50 μM, 4 μg protein, read-out: Inhibition of YycG' phosphorylation (decrease of ATPase activity)
T1 construct: of YycG (370aa to 610aa) was amplified by PCR; His-tag (pET28a) (N); made in house; host or cells: E. coli BL21 (pET28a, pETYycG')
Method: The inhibitory activities of the compounds for the ATPase activity of the YycG' protein was measured using the Kinase-Glo™ Luminescent Kinase Assay (Promega, Madison, USA). Briefly, 4 μg YycG' protein was pre-incubated with a series of dilution of compounds in the reaction buffer (40 mM Tris [pH 7.5], 20 mM MgCl2, and 0.1 mg/ml BSA), at 25°C for 30 min. Then 3 μM ATP was added for another incubation of 30 min at 25°C, and Kinase-Glo™ Reagent was added to detect the rest amount of ATP, as recorded from luminescence measurements (RLU). In parallel, theYycG' protein with no addition of compounds was used as the control. The rate of inhibiting protein phosphorylation (Rp) by the compounds was calculated from equation 1:
Rp=RLU(YycG^′+compound+ATP+Reagent)−RLU(YycG^′+ATP+Reagent)/RLU(ATP+Reagent)−RLU(YycG^′+ATP+Reagent)×100% (1) MathType@MTEF@5@5@+=feaafiart1ev1aaatCvAUfKttLearuWrP9MDH5MBPbIqV92AaeXatLxBI9gBaebbnrfifHhDYfgasaacH8akY=wiFfYdH8Gipec8Eeeu0xXdbba9frFj0=OqFfea0dXdd9vqai=hGuQ8kuc9pgc9s8qqaq=dirpe0xb9q8qiLsFr0=vr0=vr0dc8meaabaqaciaacaGaaeqabaqabeGadaaakeaacqqGsbGudaWgaaWcbaGaeeiCaahabeaakiabg2da9maalaaabaGaeeOuaiLaeeitaWKaeeyvauLaeiikaGIaeeywaKLaeeyEaKNaee4yamMafe4raCKbauaacqGHRaWkcqqGJbWycqqGVbWBcqqGTbqBcqqGWbaCcqqGVbWBcqqG1bqDcqqGUbGBcqqGKbazcqGHRaWkcqqGbbqqcqqGubavcqqGqbaucqGHRaWkcqqGsbGucqqGLbqzcqqGHbqycqqGNbWzcqqGLbqzcqqGUbGBcqqG0baDcqGGPaqkcqGHsislcqqGsbGucqqGmbatcqqGvbqvcqGGOaakcqqGzbqwcqqG5bqEcqqGJbWycuqGhbWrgaqbaiabgUcaRiabbgeabjabbsfaujabbcfaqjabgUcaRiabbkfasjabbwgaLjabbggaHjabbEgaNjabbwgaLjabb6gaUjabbsha0jabcMcaPaqaaiabbkfasjabbYeamjabbwfavjabcIcaOiabbgeabjabbsfaujabbcfaqjabgUcaRiabbkfasjabbwgaLjabbggaHjabbEgaNjabbwgaLjabb6gaUjabbsha0jabcMcaPiabgkHiTiabbkfasjabbYeamjabbwfavjabcIcaOiabbMfazjabbMha5jabbogaJjqbbEeahzaafaGaey4kaSIaeeyqaeKaeeivaqLaeeiuaaLaey4kaSIaeeOuaiLaeeyzauMaeeyyaeMaee4zaCMaeeyzauMaeeOBa4MaeeiDaqNaeiykaKcaaiabgEna0kabigdaXiabicdaWiabicdaWiabcwcaLiaaxMaacaWLjaWaaeWaaeaacqaIXaqmaiaawIcacaGLPaaaaaa@A46C@
IC50 (the concentration of inhibition of 50% YycG' protein autophosphorylation) was obtained by using the Origin v7.0 software (OriginLab, Northampton, USA).

SrrB' = test: Inhibition of SrrB' autophosphorylation (Kinase-Glo); assay type: biochemical, S. epidermidis; conditions: compound 50 μM, 4 μg protein, 3 μM ATP
[6] = Cytotoxicity on Vero cell (MTT, Cell Proliferation Kit I); assay type: cell-based, African Green-monkey; conditions: African green monkey, Vero cells, highest concentration tested 200 μM
Method: (§3) Cytotoxicity of the antibacterial compounds on cultured Vero cell was measured by using the Cell Proliferation Kit I (MTT) (Roche, Indianapolis, USA) according to the manufacturer's protocol. Addition of DMSO (1%) in the medium produced a slight cytotoxicity on Vero cell, which could easily be corrected for. Each assay was performed in quadruplicate and repeated three times. The results were converted to percentage of the control (cells only treated with 1% DMSO) and CC50 (concentrations that produce a 50% cytotoxicity effect on Vero cell) was calculated by the Origin v7.0 software (OriginLab, Northampton, USA). Hemolytic activities of the compounds were determined by using healthy human erythrocytes. The erythrocytes were washed three times in sterile saline and resuspended to 5% prior to the assay. […] Cells without compound treatment and cells with 1% Triton-100 treatment were used as 0% and 100% hemolysis controls, respectively. The cell suspensions were incubated for 1 hour at 37°C and centrifuged at 1000×g for 10 min. Volumes of 100 μl supernatants were transferred to another sterile plate and hemoglobin release from the cells was determined at 570 nm. […] The hemolysis assays were repeated twice.

[7] = Erythrocyte hemolysis assay; assay type: cell-based, human; conditions: human, erythrocytes (5% suspension), 1 hour, 37°C;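 also: compounds tested at their MIC and at 4× MIC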
Method: as §3

[8] = ATCC12228, Table 2, as tested on S. epidermidis ATCC 12228, read-out: MICs
[9] = S. epidermidis ATCC12228 (non-biofilm-forming strain), read-out: Minimal inhibitory concentration (MIC)
[10] = S. epidermidis RP62A (biofilm-forming strain), read-out: Minimal inhibitory concentration (MIC)
[11] = S. epidermidis RP62A, read-out: Minimal bactericidal concentration (MBC)
[12] = at 4 × MIC (number in parenthesis)
[13] = at MIC for S. epidermidis ATCC12228

T1 sequence (Q8CU87 370-610): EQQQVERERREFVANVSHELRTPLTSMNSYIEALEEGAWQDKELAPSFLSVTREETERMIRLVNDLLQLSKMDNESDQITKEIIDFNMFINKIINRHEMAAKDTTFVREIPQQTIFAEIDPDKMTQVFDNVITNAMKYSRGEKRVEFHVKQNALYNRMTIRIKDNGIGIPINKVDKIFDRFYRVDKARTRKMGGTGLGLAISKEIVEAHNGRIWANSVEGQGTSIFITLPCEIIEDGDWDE

SMILES | MIC (S. epidermidis ATCC12228 [4]; [8]) [µM] | MIC (S. epidermidis ATCC12228 [4]; [9]) [µM] | MIC (S. epidermidis RP62A [1]; [10]) [µM] | MIC (S. aureus ATCC29213) [µM] | Inhibitory effect against Streptococcus pyogenes (S. pyogenes 144) | MIC (S. pyogenes 144) [µM] | MIC (S. mutans 128) [µM] | MBC (S. epidermidis ATCC12228 [5]) [µM] | MBC (S. epidermidis RP62A [2]; [11]) [µM] | IC50 (YycG' protein) [µM] | inhibition at 50 µM (YycG' protein) [%] | Inhibition of SrrB' phosphorylation (SrrB') [%] | CC50 [6] [µM] | hemolysis at 1 h [7, 12] [%] | hemolysis at 1 h [7, 13] [%] | Inhibitory effect against S. aureus (S. aureus ATCC29213) | also measured
CN[C@H](CC(C)C)C(=O)N[C@H]1C(=O)N[C@@H](CC(N)=O)C(=O)N[C@H]2C(=O)N[C@H]3C(=O)N[C@H](C(=O)N[C@H](C(=O)O)c4cc(O)cc(O)c4-c4cc3ccc4O)[C@H](O)c3ccc(c(Cl)c3)Oc3cc2cc(c3O[C@@H]2O[C@H](CO)[C@@H](O)[C@H](O)[C@H]2O[C@H]2C[C@](C)(N)[C@H](O)[C@H](C)O2)Oc2ccc(cc2Cl)[C@H]1O [Vancomycin, reference compound] |  |  |  |  |  |  |  |  |  |  |  |  |  |  |  |  | MIC (S. epidermidis RP62A [1]; RP62A): 1 µg/mL; MBC (S. epidermidis RP62A [2]; RP62A): 4 µg/mL; Killing of biofilm cells ([3]; concentration increased up to 128 μg/ml): no increased killing; also recorded: almost without effect
Cc1ccc(C(O)O)cc1-c1ccc(/C=N/NC(=O)c2cc3c(ccc4ccccc43)o2)o1 [Compound 4] | 12.5 | 12.5 | 12.5 | > 200 | only active against S. pyogenes | 50 (≈ 22 µg/mL) | > 200 | 50 (≈ 22 µg/mL) | 100 | 13.5 | 76 | 3 | > 200 | 0.4 | 0.1 |  | 
CN(C)[C@@H]1C(O)=C(C(N)=O)C(=O)[C@@]2(O)C(O)=C3C(=O)c4c(O)cccc4[C@@](C)(O)[C@H]3C[C@@H]12 [Tet, tetracycline, reference compound] |  |  |  |  |  |  |  |  |  |  |  |  |  |  |  |  | MIC (S. epidermidis ATCC12228 [4]; ATCC12228, conventional antibiotics used in the hemolysis assay, strain not printed at the place, read-out: MIC): 0.25 µg/mL
CCOC(=O)C1=C(c2ccccc2)N=c2s/c(=C/c3ccc(-c4cccc(C(O)O)c4)o3)c(=O)n2C1c1ccc2c(c1)OCO2 (stereo not shown) [Compound 5] | 6.25 | 6.25 | 6.25 | 6.25 (≈ 3.89 µg/mL) | effective | 1.56 (≈ 0.971 µg/mL) | 6.25 (≈ 3.89 µg/mL) | 25 (≈ 15.6 µg/mL) | 25 | 14 | 73 |  | > 200 | 0.3 | 0.1 | effective | Inhibitory effect against Streptococcus mutans (S. mutans 128): effective; Reduction of the CFU of the biofilm cells ([3]; 24-hour-old biofilm, at MBC value, relative to untreated control): more than 100 fold
O=C(NNC(=O)c1c(Br)c(Br)c(Br)c(Br)c1C(O)O)c1cc(Cl)ccc1O [Compound 1] | 50 | 50 | 50 | 50 (≈ 32.6 µg/mL) | inhibited the growth | 200 (≈ 130 µg/mL) | > 200 | 200 (≈ 130 µg/mL) | 200 | 48 | 52 | 3 | > 200 | < 0.1 | < 0.1 | inhibited the growth | 
